System: HIV transcripts (TAR, LLTR, Pol, PolyA, TatRev)
Test: Baseline HIV transcription without activation, PBMCs from ART-suppressed PWH, 24 hours
Assay type: cell-based
Details: no activation; for 5′ elongated HIV transcripts without activation compared to DMSO / Completed HIV transcripts without activation compared to DMSO / HIV splicing (TatRev/PolyA) without activation / HIV transcription levels in the absence of T cell activation (in words) / Multiply spliced HIV transcripts without activation, median relative to DMSO: 24 hours; for HIV splicing (TatRev/PolyA) without activation: not statistically significant; for LLTR HIV transcripts (DMSO = 100) / Pol HIV transcripts (DMSO = 100) / PolyA HIV transcripts (DMSO = 100) / Tat-Rev HIV transcripts (DMSO = 100) / TAR HIV transcripts (DMSO = 100) / PolyA/LLTR ratio (DMSO = 1) / TatRev/PolyA ratio (DMSO = 1) / LLTR/TAR ratio (DMSO = 1): ruxolitinib 4μM, dinaciclib 8nM, AZD4573 8nM, KRIBB11 2.5μM; for LLTR HIV transcripts (DMSO = 100) / Pol HIV transcripts (DMSO = 100) / PolyA HIV transcripts (DMSO = 100) / Tat-Rev HIV transcripts (DMSO = 100) / TAR HIV transcripts (DMSO = 100): pladienolide B 10nM; for HIV transcription levels in the absence of T cell activation (in words) / Multiply spliced HIV transcripts without activation, median relative to DMSO: at least 3 PWH; for PolyA/LLTR ratio (DMSO = 1) / TatRev/PolyA ratio (DMSO = 1) / LLTR/TAR ratio (DMSO = 1): pladienolide B
Procedure: For a selection of the compounds, we evaluated the ability to reduce baseline HIV transcription without activation. PBMCs were cultured in the presence of individual drugs in DMSO or DMSO alone as a control and harvested after 24 hours. For each drug, we tested PBMCs from at least 3 PWH, as indicated in Supplemental Figure 5B. […] Likewise, pladienolide B appeared to reduce the level of multiply spliced transcripts (33%, Supplemental Figure 5, A and B).
PBMCs were isolated from fresh venous blood from 16 ART-suppressed HIV-infected study participants using Ficoll density gradient centrifugation. The cells were seeded at 6 × 10^6 cells/well and cultured with antiretrovirals (nevirapine and indinavir) to prevent new infection. On the next day, PBMCs were activated with anti-CD3/CD28–coated beads (Invitrogen) in the presence of 20 U/mL IL-2 and individual drugs in DMSO or DMSO alone as a control. Since we were limited in the PBMC yield per study participant, different study participants were used for different experiments (such as the initial screen, dose response, different time points, and studies in activated vs. unstimulated cells). In addition, the yields of PBMCs were sometimes insufficient to test all drugs for a given question or experiment.
Total cellular DNA and RNA were extracted in parallel using Trireagent (Molecular Research Center) according to the manufacturer’s instructions, except for study participants 2147 and 2461 (Figure 4), for whom DNA and RNA were extracted using the QIAGEN AllPrep DNA/RNA/miRNA Universal Kit with on-column DNase I treatment of the RNA and the manufacturer’s modification to enhance recovery of short transcripts. RNA and DNA concentrations were measured using UV spectrophotometry (NanoDrop One, Thermo Fisher Scientific). Total initiated HIV (TAR) transcripts were quantified by a 3-step polyadenylation RT-ddPCR as described previously ([8], [84]). HIV 5′ elongated (LLTR), midtranscribed (Pol), completed (PolyA), and multiply spliced (TatRev) transcripts were quantified by a 2-step RT-ddPCR as previously described ([8]). The levels of each HIV transcript were normalized to 1 μg of total cellular RNA and expressed as a percentage of the (activated) DMSO control. To quantify virion-associated RNA in supernatant, RNA was extracted from 400 μL supernatant using Trireagent-LS (Molecular Research Center) according to the manufacturer’s instructions. Levels of U3-polyadenylated HIV RNA were measured in the supernatant by RT-ddPCR, normalized to copies/mL, and expressed as a percentage of the activated DMSO. For measuring the HIV infection frequency at day 6, the HIV DNA U3-U5 LTR region was quantified by using ddPCR as described previously ([8]). HIV DNA copies were normalized to cell numbers according to the mass of DNA input per well (calculated from the DNA concentration and input volume) ([85]).
Figure S5. CDK-inhibitors appear to decrease baseline HIV splicing even in the absence of T cell activation. Each drug was tested in PBMCs from at least three ART-suppressed study participants and PBMCs were aliquoted into wells at 6x10^6 cells/well. The cells were cultured with antiretrovirals but without activation in the presence of individual drugs in (1 picture or pasted object on this page, not shown here)
DMSO or DMSO alone as control. After 24h, total RNA was extracted and the progression through different stages of HIV transcription was quantified by measuring the levels of initiated (TAR), 5’ elongated (LLTR), mid-transcribed/unspliced (Pol), completed (PolyA) and multiply spliced (TatRev) HIV transcripts. A-B) The levels of all HIV transcripts were quantified, normalized to 1 µg of total cellular RNA, and expressed as a percent of the DMSO control (% of DMSO). A) Medians are shown, as well as the values of the individual study participants in different colors. B) The medians from panel A) are presented. The effect of each drug on the different transcripts was studied in three to six study participants, as […]

[1] = participant 5557 (DMSO cell empty)

## CCc1cnn2c(NCc3ccc[n+]([O-])c3)cc(N3CCCC[C@H]3CCO)nc12 [dinaciclib]
  5′ elongated HIV transcripts without activation compared to DMSO: did not reduce
  Completed HIV transcripts without activation compared to DMSO: did not reduce
  HIV splicing (TatRev/PolyA) without activation: severely reduce
Participant 156
  LLTR HIV transcripts (DMSO = 100): 121.36
  Pol HIV transcripts (DMSO = 100): 49.08
  PolyA HIV transcripts (DMSO = 100): 67.47
  Tat-Rev HIV transcripts (DMSO = 100): 0
Participant 163
  LLTR HIV transcripts (DMSO = 100): 142.94
  Pol HIV transcripts (DMSO = 100): 207.39
  PolyA HIV transcripts (DMSO = 100): 173.7
  Tat-Rev HIV transcripts (DMSO = 100): 0
Participant 1379
  LLTR HIV transcripts (DMSO = 100): 40.3
  Pol HIV transcripts (DMSO = 100): 0
  PolyA HIV transcripts (DMSO = 100): 20.95
  TAR HIV transcripts (DMSO = 100): 228.89
Participant 2027
  LLTR HIV transcripts (DMSO = 100): 82.61
  Pol HIV transcripts (DMSO = 100): 131.38
  PolyA HIV transcripts (DMSO = 100): 193.29
  TAR HIV transcripts (DMSO = 100): 248.84
Participant 2750
  LLTR HIV transcripts (DMSO = 100): 83.98
  Pol HIV transcripts (DMSO = 100): 102.74
  PolyA HIV transcripts (DMSO = 100): 91.99
  TAR HIV transcripts (DMSO = 100): 108.94
  Tat-Rev HIV transcripts (DMSO = 100): 0
[1]
  LLTR HIV transcripts (DMSO = 100): 59.59
  Pol HIV transcripts (DMSO = 100): 0
Participant 5557
  TAR HIV transcripts (DMSO = 100): 176.06

## CNc1ccc([N+](=O)[O-])c(Nc2ccc3[nH]ncc3c2)n1 [KRIBB11]
  HIV transcription levels in the absence of T cell activation (in words): little effect
Participant 156
  LLTR HIV transcripts (DMSO = 100): 90.95
  Pol HIV transcripts (DMSO = 100): 85.77
  PolyA HIV transcripts (DMSO = 100): 144.03
  Tat-Rev HIV transcripts (DMSO = 100): 735.63
  PolyA/LLTR ratio (DMSO = 1): 1.584
  TatRev/PolyA ratio (DMSO = 1): 5.108
Participant 163
  LLTR HIV transcripts (DMSO = 100): 72.79
  Pol HIV transcripts (DMSO = 100): 89.89
  PolyA HIV transcripts (DMSO = 100): 74.5
  Tat-Rev HIV transcripts (DMSO = 100): 0
  PolyA/LLTR ratio (DMSO = 1): 1.0234
  TatRev/PolyA ratio (DMSO = 1): 0
Participant 2027
  LLTR HIV transcripts (DMSO = 100): 71.57
  Pol HIV transcripts (DMSO = 100): 64.26
  PolyA HIV transcripts (DMSO = 100): 97.36
  TAR HIV transcripts (DMSO = 100): 144.19
  LLTR/TAR ratio (DMSO = 1): 0.4964
  PolyA/LLTR ratio (DMSO = 1): 1.36

## pladienolide B
  Multiply spliced HIV transcripts without activation, median relative to DMSO: 33%
  HIV splicing (TatRev/PolyA) without activation: severely reduce
Participant 156
  LLTR HIV transcripts (DMSO = 100): 85.34
  Pol HIV transcripts (DMSO = 100): 133.38
  PolyA HIV transcripts (DMSO = 100): 150.05
  Tat-Rev HIV transcripts (DMSO = 100): 66.69
  PolyA/LLTR ratio (DMSO = 1): 1.758
  TatRev/PolyA ratio (DMSO = 1): 0.4444
Participant 163
  LLTR HIV transcripts (DMSO = 100): 92.55
  Pol HIV transcripts (DMSO = 100): 107.42
  PolyA HIV transcripts (DMSO = 100): 106.43
  Tat-Rev HIV transcripts (DMSO = 100): 0
  PolyA/LLTR ratio (DMSO = 1): 1.15
  TatRev/PolyA ratio (DMSO = 1): 0
Participant 1379
  LLTR HIV transcripts (DMSO = 100): 18.62
  Pol HIV transcripts (DMSO = 100): 16.13
  PolyA HIV transcripts (DMSO = 100): 25.8
  TAR HIV transcripts (DMSO = 100): 228.89
  LLTR/TAR ratio (DMSO = 1): 0.08133
  PolyA/LLTR ratio (DMSO = 1): 1.3861
Participant 2027
  LLTR HIV transcripts (DMSO = 100): 81.44
  Pol HIV transcripts (DMSO = 100): 43.71
  PolyA HIV transcripts (DMSO = 100): 90.63
  TAR HIV transcripts (DMSO = 100): 125.58
  LLTR/TAR ratio (DMSO = 1): 0.6485
  PolyA/LLTR ratio (DMSO = 1): 1.113

## N#CC[C@H](C1CCCC1)n1cc(-c2ncnc3[nH]ccc23)cn1 [ruxolitinib]
  HIV transcription levels in the absence of T cell activation (in words): little effect
Participant 156
  LLTR HIV transcripts (DMSO = 100): 91.78
  Pol HIV transcripts (DMSO = 100): 118.18
  PolyA HIV transcripts (DMSO = 100): 108.3
  Tat-Rev HIV transcripts (DMSO = 100): 167.91
Participant 163
  LLTR HIV transcripts (DMSO = 100): 148.94
  Pol HIV transcripts (DMSO = 100): 91.9
  PolyA HIV transcripts (DMSO = 100): 183.43
  Tat-Rev HIV transcripts (DMSO = 100): 0
Participant 1379
  LLTR HIV transcripts (DMSO = 100): 49.44
  Pol HIV transcripts (DMSO = 100): 31.32
  PolyA HIV transcripts (DMSO = 100): 9.4
  TAR HIV transcripts (DMSO = 100): 170
Participant 2027
  LLTR HIV transcripts (DMSO = 100): 57.36
  Pol HIV transcripts (DMSO = 100): 74.54
  PolyA HIV transcripts (DMSO = 100): 109.96
  TAR HIV transcripts (DMSO = 100): 90.7

## CC(=O)N[C@@H]1CCC[C@H](C(=O)Nc2cc(-c3cnn4c3CC(C)(C)C4)c(Cl)cn2)C1 [AZD4573]
  5′ elongated HIV transcripts without activation compared to DMSO: did not reduce
  Completed HIV transcripts without activation compared to DMSO: did not reduce
  Multiply spliced HIV transcripts without activation, median relative to DMSO: 0%
  HIV splicing (TatRev/PolyA) without activation: severely reduce
Participant 156
  LLTR HIV transcripts (DMSO = 100): 37.81
  Pol HIV transcripts (DMSO = 100): 28.11
  PolyA HIV transcripts (DMSO = 100): 93.77
  Tat-Rev HIV transcripts (DMSO = 100): 0
  PolyA/LLTR ratio (DMSO = 1): 2.48
  TatRev/PolyA ratio (DMSO = 1): 0
Participant 163
  LLTR HIV transcripts (DMSO = 100): 69.35
  Pol HIV transcripts (DMSO = 100): 112.58
  PolyA HIV transcripts (DMSO = 100): 122.94
  Tat-Rev HIV transcripts (DMSO = 100): 0
  PolyA/LLTR ratio (DMSO = 1): 1.773
  TatRev/PolyA ratio (DMSO = 1): 0
Participant 1379
  LLTR HIV transcripts (DMSO = 100): 41.73
  Pol HIV transcripts (DMSO = 100): 110.74
  PolyA HIV transcripts (DMSO = 100): 43.19
  TAR HIV transcripts (DMSO = 100): 286.67
  LLTR/TAR ratio (DMSO = 1): 0.1456
  PolyA/LLTR ratio (DMSO = 1): 1.035
Participant 2027
  LLTR HIV transcripts (DMSO = 100): 76.52
  Pol HIV transcripts (DMSO = 100): 30.35
  PolyA HIV transcripts (DMSO = 100): 87.13
  TAR HIV transcripts (DMSO = 100): 211.63
  LLTR/TAR ratio (DMSO = 1): 0.3616
  PolyA/LLTR ratio (DMSO = 1): 1.1386
Participant 2750
  LLTR HIV transcripts (DMSO = 100): 134.54
  Pol HIV transcripts (DMSO = 100): 202.4
  PolyA HIV transcripts (DMSO = 100): 70.63
  TAR HIV transcripts (DMSO = 100): 206.7
  Tat-Rev HIV transcripts (DMSO = 100): 0
  LLTR/TAR ratio (DMSO = 1): 0.6509
  PolyA/LLTR ratio (DMSO = 1): 0.525
  TatRev/PolyA ratio (DMSO = 1): 0
[1]
  LLTR HIV transcripts (DMSO = 100): 170.71
  Pol HIV transcripts (DMSO = 100): 0
Participant 5557
  TAR HIV transcripts (DMSO = 100): 348.03
  LLTR/TAR ratio (DMSO = 1): 0.57

From PMC11466185, “Mechanisms and efficacy of small molecule latency-promoting agents to inhibit HIV reactivation ex vivo” (JCI Insight, 2024)
